Data on 21 compounds can be found in ChEMBL document CHEMBL3751845, “Synthesis, molecular docking and biological evaluation of N,N-disubstituted 2-aminothiazolines as a new class of butyrylcholinesterase and carboxylesterase inhibitors” (Bioorg Med Chem, 2016).

For data set [1], the target named is T1, Liver carboxylesterase (Sus scrofa, UniProt Q29550).
T1 sequence (Q29550 whole entry): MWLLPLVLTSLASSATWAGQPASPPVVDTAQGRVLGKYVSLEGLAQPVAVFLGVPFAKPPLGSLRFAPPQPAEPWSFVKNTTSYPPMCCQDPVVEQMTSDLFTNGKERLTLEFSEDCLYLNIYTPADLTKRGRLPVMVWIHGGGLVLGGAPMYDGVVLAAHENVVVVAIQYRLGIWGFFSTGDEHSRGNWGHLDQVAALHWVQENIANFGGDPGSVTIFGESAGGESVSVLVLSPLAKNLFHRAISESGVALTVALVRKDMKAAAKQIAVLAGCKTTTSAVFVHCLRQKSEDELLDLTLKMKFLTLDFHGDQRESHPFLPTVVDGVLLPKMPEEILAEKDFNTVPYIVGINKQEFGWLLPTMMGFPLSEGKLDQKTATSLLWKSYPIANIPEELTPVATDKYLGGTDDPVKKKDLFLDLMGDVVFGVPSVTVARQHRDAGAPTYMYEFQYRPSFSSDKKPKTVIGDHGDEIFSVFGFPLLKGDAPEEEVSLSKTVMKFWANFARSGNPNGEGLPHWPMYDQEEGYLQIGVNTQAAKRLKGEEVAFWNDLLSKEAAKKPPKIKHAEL
Description: Inhibition of porcine liver carboxylesterase using 4-nitrophenol acetate as substrate by spectrophotometric analysis.

In data set [2] the target is T2, Cholinesterase (Equus caballus, UniProt P81908). Description: Inhibition of equine serum BChE using butyrylthiocholine iodide as substrate preincubated for 10 mins followed by substrate addition by Ellman's method. On the technique in general: In Ellman's method for cholinesterases, released thiocholine reacts with DTNB.
The target in data set [3] is T3, Acetylcholinesterase (Homo sapiens, UniProt P22303).
Description: (§1) Inhibition of human erythrocyte AChE using acetylthiocholine iodide as substrate preincubated for 10 mins followed by substrate addition by Ellman's method
The target in data set [4] is T1, Liver carboxylesterase. Description: Noncompetitive inhibition of porcine liver carboxylesterase using 4-nitrophenol acetate as substrate assessed as steady state inhibition constant preincubated for 10 mins followed by substrate addition by Lineweaver-Burk double reciprocal plot analysis.
In data set [5] the target is T2, Cholinesterase. Description: Noncompetitive inhibition of equine serum BChE using butyrylthiocholine iodide as substrate assessed as steady state inhibition constant preincubated for 10 mins followed by substrate addition by Lineweaver-Burk double reciprocal plot analysis.
For data set [6], the target named is T2, Cholinesterase. Description: Competitive inhibition of equine serum BChE using butyrylthiocholine iodide as substrate assessed as steady state inhibition constant preincubated for 10 mins followed by substrate addition by Lineweaver-Burk double reciprocal plot analysis.
A short description of data set [7]: Cytotoxicity against human fetal MSC assessed as reduction in cell viability at <30 uM after 72 hrs by MTT assay. On the technique in general: Formazan colour is commonly taken as a measure of viable cells.
The target of data set [8] is T3, Acetylcholinesterase. The source holds these as a separate data set.
Description: as §1

A value given as a limit tells only on which side of the number the result lay.

T3 sequence (P22303 whole entry): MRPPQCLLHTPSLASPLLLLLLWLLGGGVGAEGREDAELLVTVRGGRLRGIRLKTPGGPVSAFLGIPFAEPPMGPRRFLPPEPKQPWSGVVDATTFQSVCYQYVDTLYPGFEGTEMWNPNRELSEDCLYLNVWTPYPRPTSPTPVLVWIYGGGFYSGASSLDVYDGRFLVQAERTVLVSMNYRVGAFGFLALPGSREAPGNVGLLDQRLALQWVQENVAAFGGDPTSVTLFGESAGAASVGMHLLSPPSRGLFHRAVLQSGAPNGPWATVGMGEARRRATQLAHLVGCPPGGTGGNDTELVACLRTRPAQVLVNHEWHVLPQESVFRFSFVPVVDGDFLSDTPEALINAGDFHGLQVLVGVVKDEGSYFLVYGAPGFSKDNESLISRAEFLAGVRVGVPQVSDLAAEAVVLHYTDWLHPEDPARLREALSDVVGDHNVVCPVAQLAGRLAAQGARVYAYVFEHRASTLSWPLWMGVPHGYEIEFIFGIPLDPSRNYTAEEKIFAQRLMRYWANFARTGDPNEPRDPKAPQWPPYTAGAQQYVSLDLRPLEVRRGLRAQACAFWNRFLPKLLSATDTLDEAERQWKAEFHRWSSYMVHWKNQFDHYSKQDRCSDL
T2 sequence (P81908 whole entry): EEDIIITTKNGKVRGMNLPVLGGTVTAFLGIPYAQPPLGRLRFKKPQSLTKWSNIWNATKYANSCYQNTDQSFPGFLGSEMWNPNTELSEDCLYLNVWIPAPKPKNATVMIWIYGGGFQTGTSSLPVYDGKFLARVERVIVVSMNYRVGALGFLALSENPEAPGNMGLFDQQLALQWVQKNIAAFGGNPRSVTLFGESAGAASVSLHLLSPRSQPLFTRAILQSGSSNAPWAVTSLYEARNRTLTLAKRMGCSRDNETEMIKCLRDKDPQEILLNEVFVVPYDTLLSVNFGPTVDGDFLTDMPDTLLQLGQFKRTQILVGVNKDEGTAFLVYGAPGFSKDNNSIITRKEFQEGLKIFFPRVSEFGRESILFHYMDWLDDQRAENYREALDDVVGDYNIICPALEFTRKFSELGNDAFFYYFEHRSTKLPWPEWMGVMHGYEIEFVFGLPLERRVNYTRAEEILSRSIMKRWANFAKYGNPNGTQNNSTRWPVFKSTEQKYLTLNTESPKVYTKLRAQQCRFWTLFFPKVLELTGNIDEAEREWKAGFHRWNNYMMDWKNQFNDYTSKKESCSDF

As usually defined, the IC50 is the midpoint of a concentration-inhibition curve. Turning to `I.ICC1CN=C(Nc2ccc3c(c2)oc2ccccc23)S1` (stereo unspecified), the IC50 at Liver carboxylesterase [1] (read-out: IC50) was above 100 µM; on Cholinesterase [2], above 100 µM; on Acetylcholinesterase [3], “Not Active”.
Take `I.ICC1CN=C(N(Cc2ccccc2)Cc2ccccc2)S1` (stereo unspecified): the IC50 is 46 µM at Liver carboxylesterase [1] (read-out: IC50), 25 µM on Cholinesterase [2] and “Not Active” at Acetylcholinesterase [3].
In the same order, the values of `Br.CC(c1ccccc1)N(Cc1ccccc1)C1=NCC(CBr)S1` (stereo unspecified) are above 100 µM, 14 µM and “Not Active”.
In the same order, the values of `Br.BrCC1CN=C(N(Cc2ccccc2)Cc2ccccc2)S1` (stereo unspecified) are 32 µM, 26 µM and “Not Active”.
In the same order, the values of `Br.Clc1ccccc1CN(Cc1cccnc1)C1=NCC(CBr)S1` (stereo unspecified) are above 100 µM, 25 µM and “Not Active”.
What is called Ki is a dissociation constant, usually derived from enzyme kinetics or from competition with a known ligand. For `CC(C)c1ccc(CN(Cc2ccccc2)C2=NCC(CI)S2)cc1.I` (stereo unspecified), the Ki at Liver carboxylesterase [4] was determined as 2.09 µM; on Cholinesterase [5], 7.56 µM; at Cholinesterase [6], 1.34 µM. The half-inhibitory concentration (IC50) is 2.13 µM at Liver carboxylesterase [1] (read-out: IC50), 4.14 µM against Cholinesterase [2] and “Not Active” against Acetylcholinesterase [3]. Further, the Activity entry in data set [7] is “Non-toxic”.
Consider `CC(C)(C)c1cc(CN(Cc2ccccc2)C2=NCC(CI)S2)cc(C(C)(C)C)c1O.I` (stereo unspecified), for which the values for the IC50 entry against Liver carboxylesterase [1], against Cholinesterase [2] and on Acetylcholinesterase [3] were “Not Active”, above 100 µM and “Not Active”, respectively.
Consider `Br.CC(C)c1ccc(CN(Cc2ccccc2)C2=NCC(CBr)S2)cc1` (stereo unspecified), for which the Ki on Liver carboxylesterase [4] is 3.54 µM. Further, the values for the IC50 at Liver carboxylesterase [1] (read-out: IC50), against Cholinesterase [2] and against Acetylcholinesterase [3] were 2.55 µM, 11 µM and “Not Active”, respectively. Besides, in data set [7], the Activity entry is “Non-toxic”.
Take `COc1ccc(CN(Cc2ccccc2)C2=NCC(CI)S2)cc1OC` (stereo unspecified): the IC50 was above 100 µM on Liver carboxylesterase [1] (read-out: IC50), 20 µM against Cholinesterase [2] and above 100 µM against Acetylcholinesterase [8].
Regarding `Clc1ccccc1CN(Cc1ccccc1)C1=NCC(CI)S1.I` (stereo unspecified), the IC50 was 117 µM at Liver carboxylesterase [1] (read-out: IC50), 44 µM on Cholinesterase [2] and “Not Active” against Acetylcholinesterase [3].
Take `Clc1ccccc1CN(Cc1cccnc1)C1=NCC(CI)S1.I` (stereo unspecified): the IC50 is above 100 µM on Liver carboxylesterase [1] (read-out: IC50), 21 µM on Cholinesterase [2] and “Not Active” against Acetylcholinesterase [3].
In the same order, the values of `I.ICC1CN=C(N(Cc2ccccc2)Cc2ccco2)S1` (stereo unspecified) are 131 µM, 42 µM and “Not Active”.
For the compound `COc1ccc(CN(Cc2ccccc2)C2=NCC(CI)S2)cc1.I` (stereo unspecified), the Ki at Liver carboxylesterase [4] was 7.81 µM. Besides, the results for the half-inhibitory concentration (IC50) at Liver carboxylesterase [1] (read-out: IC50), against Cholinesterase [2] and at Acetylcholinesterase [3] were 4.66 µM, 25 µM and “Not Active”, respectively. Also, in data set [7], the Activity result is recorded as “Non-toxic”.
As for `Br.COc1ccc(CN(Cc2ccccc2)C2=NCC(CBr)S2)cc1` (stereo unspecified), the Ki at Liver carboxylesterase [4] was determined as 7.37 µM. For the same compound, the IC50 at Liver carboxylesterase [1] (read-out: IC50) was 4.9 µM; on Cholinesterase [2] it was 34 µM; against Acetylcholinesterase [3], “Not Active”. In data set [7], the Activity entry is “Non-toxic”.
Regarding `Br.Clc1ccc(CN(Cc2cccnc2)C2=NCC(CBr)S2)cc1` (stereo unspecified), the Ki at Cholinesterase [5] was 19.9 µM; at Cholinesterase [6] it was 9.51 µM. Further, the IC50 was above 100 µM on Liver carboxylesterase [1] (read-out: IC50), 30 µM at Cholinesterase [2] and “Not Active” on Acetylcholinesterase [3]. In addition, the Activity result in data set [7] is “Non-toxic”.
For the compound `Fc1ccc(CN(Cc2ccccc2)C2=NCC(CI)S2)cc1.I` (stereo unspecified), the IC50 at Liver carboxylesterase [1] (read-out: IC50) is 80 µM; on Cholinesterase [2], 17 µM; on Acetylcholinesterase [3], “Not Active”.
For the compound `Br.CC(C)(C)c1ccc(CN(Cc2ccccc2)C2=NCC(CBr)S2)cc1` (stereo unspecified), the Ki was determined as 0.44 µM at Liver carboxylesterase [4] and 0.62 µM on Cholinesterase [6]. Further, the IC50 at Liver carboxylesterase [1] (read-out: IC50) was 0.32 µM; at Cholinesterase [2], 2.34 µM; at Acetylcholinesterase [3] it was “Not Active”. Also, the Activity entry in data set [7] is given as “Non-toxic”.
`Br.Fc1ccc(CN(Cc2ccccc2)C2=NCC(CBr)S2)cc1` (stereo unspecified): the 50% inhibitory concentration (IC50) on Liver carboxylesterase [1] (read-out: IC50) was 40 µM; against Cholinesterase [2], 38 µM; against Acetylcholinesterase [3], “Not Active”.
For `CC(C)(C)c1ccc(CN(Cc2ccccc2)C2=NCC(CI)S2)cc1.I` (stereo unspecified), the inhibition constant (Ki) at Liver carboxylesterase [4] was 0.4 µM; at Cholinesterase [5] it was 1.2 µM; at Cholinesterase [6], 0.27 µM. The IC50 was 0.22 µM on Liver carboxylesterase [1] (read-out: IC50), 0.77 µM at Cholinesterase [2] and “Not Active” at Acetylcholinesterase [3]. In addition, in data set [7], the Activity entry was “Non-toxic”.
Take `CC(c1ccccc1)N(Cc1ccccc1)C1=NCC(CI)S1.I` (stereo unspecified): the figures for the half-maximal inhibitory concentration (IC50) on Liver carboxylesterase [1] (read-out: IC50), at Cholinesterase [2] and at Acetylcholinesterase [3] were 19 µM, above 100 µM and “Not Active”, respectively.
In the case of `Clc1ccc(CN(Cc2cccnc2)C2=NCC(CI)S2)cc1.I` (stereo unspecified), the Ki came to 3.6 µM at Cholinesterase [5] and 0.67 µM on Cholinesterase [6]. In addition, the concentration for half-maximal inhibition (IC50) was 18 µM on Liver carboxylesterase [1] (read-out: IC50), 2.47 µM against Cholinesterase [2] and above 100 µM against Acetylcholinesterase [8]. Further, the Activity entry in data set [7] is reported as “Non-toxic”.
